The values below come from patent publication US9073821B2, “Hydroxamic acid derivative” (priority 2010, dated 2015).

Converted amounts (≈) assume the structure as drawn. Like-named read-outs stand apart in the source and are kept apart here.

The target in assay [1] is Pseudomonas aeruginosa LpxC enzyme (Pseudomonas aeruginosa (strain ATCC 15692 / DSM 22644 / CIP 104116 / JCM 14847 / LMG 12228 / 1C / PRS 101 / PAO1), UniProt P47205). The assay is described as follows: biochemical. The format is biochemical.
A further assay deals with E. coli LpxC enzyme (Escherichia coli (strain K12), UniProt P0A725). Kind of assay: Inhibitory activity on E. coli LpxC enzyme (fluorescamine assay). The format is biochemical. The conditions noted are these: Table 4. On the procedure: Test 2: Evaluation of the Inhibitory Activity on E. coli LpxC Enzyme
Chain of E. coli LpxC enzyme (P0A725 whole entry): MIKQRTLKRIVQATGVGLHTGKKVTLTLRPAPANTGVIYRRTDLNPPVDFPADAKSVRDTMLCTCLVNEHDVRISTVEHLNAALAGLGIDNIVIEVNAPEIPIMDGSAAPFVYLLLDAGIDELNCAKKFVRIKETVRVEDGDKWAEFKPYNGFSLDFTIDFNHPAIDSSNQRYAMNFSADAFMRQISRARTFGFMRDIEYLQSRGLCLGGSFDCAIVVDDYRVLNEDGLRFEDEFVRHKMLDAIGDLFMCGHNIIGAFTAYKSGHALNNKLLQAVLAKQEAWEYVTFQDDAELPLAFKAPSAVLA
An inhibition curve was constructed for each test compound by performing the aforementioned reaction at varying concentrations of the test compound. From this inhibition curve, the concentration of the test compound at which the formation of the reaction product was suppressed by 50% was determined as the IC50 of the test compound, which was an index for the inhibitory activity on E. coli LpxC enzyme.

A further assay concerns E. coli strain ATCC25922. Kind of assay: Antimicrobial activity, MIC by broth microdilution. It counts as cell-based. The conditions noted are these: Escherichia coli, Table 4, 35° C., 18 hours, read-out: E. coli ATCC 25922 strain MIC.
Assay [2] deals with Klebsiella pneumoniae strain ATCC13883. Kind of assay: Antimicrobial activity, MIC by broth microdilution. It counts as cell-based. The conditions noted are these: Table 4, 35° C., 18 hours, read-out: Klebsiella pneumoniae ATCC 13883 strain MIC.
The test system of assay [3] is Pseudomonas aeruginosa strain TS88 (clinical isolate). Kind of assay: Antimicrobial activity, MIC by broth microdilution. The format is cell-based. The conditions noted are these: Table 4, 35° C., 18 hours, read-out: Pseudomonas aeruginosa TS88 strain MIC.
[4] abbreviates: Table 4, read-out: Pseudomonas aeruginosa LpxC IC50.
The mark [5] stands for this setting: inhibitory activity on Pseudomonas aeruginosa LpxC enzyme, class symbols A/B/C, read-out: Enzyme inhibitory activity.
[6] abbreviates: class symbols A/B/C by IC50, Table 3, read-out: Enzyme inhibitory activity (inhibitory activity on Pseudomonas aeruginosa LpxC enzyme).

Turning to `CNC(=O)C(C(=O)NO)N(C)C(=O)c1ccc(C#Cc2ccc(CN3CCCOCC3)cc2)cc1` (stereo not drawn) [Compound 168, N-hydroxy-N′-methyl-2-[methyl(4-{[4-(1,4-oxazepan-4-ylmethyl)phenyl]ethynyl}benzoyl)amino]propanediamide], the IC50 is 4.2 nM in assay [1] (setting [4]), less than 10 nM in assay [1] (setting [5]) and 119 nM against E. coli LpxC enzyme. In addition, the figures for the MIC (in the assay on E. coli strain ATCC25922; in assay [2]; in assay [3]) were 0.5 µg/mL (≈ 1.04 µM), 2 µg/mL (≈ 4.18 µM) and 0.5 µg/mL (≈ 1.04 µM), respectively.

Turning to `CCOc1ccc(-c2ccc(C(=O)N(C)C(C(=O)NC)C(=O)NO)cc2)cc1` (stereo not drawn) [Compound 211, 2-{[(4′-ethoxybiphenyl-4-yl)carbonyl](methyl)amino}-N-hydroxy-N′-methylpropanediamide], the IC50 in assay [1] (setting [4]) was 3.1 nM; in assay [1] (setting [5]), less than 10 nM; against E. coli LpxC enzyme it was 109 nM. Besides, the results for the minimum inhibitory concentration (MIC) (in the assay with E. coli strain ATCC25922; in assay [2]; in assay [3]) were 1 µg/mL (≈ 2.59 µM), 8 µg/mL (≈ 20.8 µM) and 0.5 µg/mL (≈ 1.3 µM), respectively.

With `CNC(=O)C(C(=O)NO)N(C)C(=O)c1ccc(C#Cc2ccc(CNC3CC3)cc2)cc1` (stereo not drawn) [Compound 301, 2-[{[4-({4-[(Cyclopropylamino)methyl]phenyl}ethynyl)phenyl]carbonyl}(methyl)amino]-n-hydroxy-n′-methylpropanediamide], the IC50 in assay [1] (setting [4]) was 6.1 nM; in assay [1] (setting [5]), less than 10 nM; at E. coli LpxC enzyme it was 100 nM. The MIC was 1 µg/mL (≈ 2.3 µM) in the assay with E. coli strain ATCC25922, 4 µg/mL (≈ 9.21 µM) in assay [2] and 1 µg/mL (≈ 2.3 µM) in assay [3].

In the case of `CNC(=O)[C@@](C)(C(=O)NO)N(C)C(=O)c1ccc(C#Cc2ccc(CN3CCCOCC3)cc2)cc1` [Compound 376, (2S)-N-hydroxy-N′,2-dimethyl-2-[methyl(4-{[4-(1,4-oxazepan-4-ylmethyl)phenyl]ethynyl}benzoyl)amino]propanediamide], the IC50 in assay [1] (setting [4]) was 2 nM; in assay [1] (setting [5]), less than 10 nM; at E. coli LpxC enzyme it was 129 nM. Further, the MIC with E. coli strain ATCC25922 was 0.25 µg/mL (≈ 0.508 µM); in assay [2] it was 1 µg/mL (≈ 2.03 µM); in assay [3], 0.5 µg/mL (≈ 1.02 µM).

Turning to `CNC(=O)[C@@](C)(C(=O)NO)N(C)C(=O)c1ccc(C#Cc2ccc(CNC3COC3)cc2)cc1` [Compound 396, (2S)-N-hydroxy-N′,2-dimethyl-2-(methyl{[4-({4-[(oxetan-3-ylamino)methyl]phenyl}ethynyl)phenyl]carbonyl}amino)propanediamide], the figures for the IC50 (in assay [1] (setting [4]); in assay [1] (setting [5]); at E. coli LpxC enzyme) were 3.1 nM, less than 10 nM and 46 nM, respectively. Besides, the minimal inhibitory concentration (MIC) in the assay on E. coli strain ATCC25922 turned out to be 0.5 µg/mL (≈ 1.08 µM); in assay [2] it was 2 µg/mL (≈ 4.31 µM); in assay [3] it was 2 µg/mL (≈ 4.31 µM).

Consider `CNC(=O)[C@@](C)(C(=O)NO)N(C)C(=O)c1ccc(CCc2ccc(CN3CCOCC3)cc2)cc1` [Compound 425, (2S)-N-hydroxy-N′,2-dimethyl-2-{methyl[(4-{2-[4-(morpholin-4-ylmethyl)phenyl]ethyl}phenyl)carbonyl]amino}propanediamide], for which the IC50 in assay [1] (setting [4]) is 5.1 nM; in assay [1] (setting [5]), less than 10 nM; at E. coli LpxC enzyme it was 121 nM. The MIC came to 2 µg/mL (≈ 4.14 µM) in the assay on E. coli strain ATCC25922, 8 µg/mL (≈ 16.6 µM) in assay [2] and 8 µg/mL (≈ 16.6 µM) in assay [3].

Turning to `CNC(=O)[C@@](C)(C(=O)NO)N(C)C(=O)c1ccc(/C=C/c2ccc(CN3CCOCC3)cc2)cc1` [Compound 434, (2S)-N-hydroxy-N′,2-dimethyl-2-{methyl[(4-{(E)-2-[4-(morpholin-4-ylmethyl)phenyl]ethenyl}phenyl)carbonyl]amino}propanediamide], the IC50 in assay [1] (setting [4]) was 2.8 nM; in assay [1] (setting [5]), less than 10 nM; against E. coli LpxC enzyme it was 55 nM. Also, the results for the MIC (with E. coli strain ATCC25922; in assay [2]; in assay [3]) were 0.25 µg/mL (≈ 0.52 µM), 1 µg/mL (≈ 2.08 µM) and 1 µg/mL (≈ 2.08 µM), respectively.

Consider `CNC(=O)C(C(=O)NO)N(C)C(=O)c1ccc(/C=C/C#Cc2ccc(CNC3CC3)cc2)cc1` (stereo not drawn) [Compound 477, 2-[({4-[(1E)-4-{4-[(cyclopropylamino)methyl]phenyl}but-1-en-3-yn-1-yl]phenyl}carbonyl)(methyl)amino]-N-hydroxy-N′-methylpropanediamide], for which the IC50 in assay [1] (setting [4]) was 4.3 nM; in assay [1] (setting [5]) it was less than 10 nM; against E. coli LpxC enzyme it was 33 nM. Moreover, the MIC was determined as 0.25 µg/mL (≈ 0.543 µM) in the assay on E. coli strain ATCC25922, 1 µg/mL (≈ 2.17 µM) in assay [2] and 0.5 µg/mL (≈ 1.09 µM) in assay [3].

For the compound `CNC(=O)C(C(=O)NO)N(C)C(=O)c1ccc(C#C/C=C/c2ccc(CNC3CC3)cc2)cc1` (stereo not drawn) [Compound 481, 2-[({4-[(3E)-4-{4-[(cyclopropylamino)methyl]phenyl}but-3-en-1-yn-1-yl]phenyl}carbonyl)(methyl)amino]-N-hydroxy-N′-methylpropanediamide], the IC50 in assay [1] (setting [4]) was 9.1 nM; in assay [1] (setting [5]), less than 10 nM; on E. coli LpxC enzyme it was 78 nM. Further, the values for the MIC (in the assay on E. coli strain ATCC25922; in assay [2]; in assay [3]) were 0.25 µg/mL (≈ 0.543 µM), 2 µg/mL (≈ 4.34 µM) and 1 µg/mL (≈ 2.17 µM), respectively.

Take `CNC(=O)C(C)(C(=O)NO)N(C)C(=O)c1ccc(C#Cc2coc(COC)c2)cc1` (stereo not drawn) [Compound 528, N-hydroxy-2-{[(4-{[5-(methoxymethyl)furan-3-yl]ethynyl}phenyl)carbonyl](methyl)amino}-N′,2-dimethylpropanediamide]: the IC50 in assay [1] was less than 10 nM; in assay [1] (setting [4]), 4.8 nM; on E. coli LpxC enzyme, 25 nM. Further, the MIC in the assay on E. coli strain ATCC25922 came out at 0.25 µg/mL (≈ 0.605 µM); in assay [2], 2 µg/mL (≈ 4.84 µM); in assay [3] it was 0.5 µg/mL (≈ 1.21 µM).

Take `CNC(=O)[C@@](C)(C(=O)NO)N(C)C(=O)c1ccc(C#Cc2coc(COC)c2)cc1` [Compound 550, (2S)-N-hydroxy-2-{[(4-{[5-(methoxymethyl)furan-3-yl]ethynyl}phenyl)carbonyl](methyl)amino}-N′,2-dimethylpropanediamide]: the values for the IC50 (in assay [1]; in assay [1] (setting [4]); against E. coli LpxC enzyme) were less than 10 nM, 1.6 nM and 12 nM, respectively. Further, the MIC in the assay on E. coli strain ATCC25922 was found to be 0.25 µg/mL (≈ 0.605 µM); in assay [2] it was 1 µg/mL (≈ 2.42 µM); in assay [3], 0.5 µg/mL (≈ 1.21 µM).

Regarding `CCOC1CN(Cc2ccc(C#Cc3ccc(C(=O)N(C)[C@@](C)(C(=O)NC)C(=O)NO)cc3)cc2)C1` [Compound 557, (2S)-2-[{[4-({4-[(3-ethoxyazetidin-1-yl)methyl]phenyl}ethynyl)phenyl]carbonyl}(methyl)amino]-N-hydroxy-N′,2-dimethylpropanediamide], the results for the IC50 (in assay [1] (setting [4]); in assay [1] (setting [6]); against E. coli LpxC enzyme) were 2.3 nM, less than 10 nM and 108 nM, respectively. In addition, the MIC in the assay with E. coli strain ATCC25922 was 0.25 µg/mL (≈ 0.508 µM); in assay [2], 1 µg/mL (≈ 2.03 µM); in assay [3], 0.5 µg/mL (≈ 1.02 µM).

Consider `CNC(=O)[C@@](C)(C(=O)NO)N(C)C(=O)c1ccc(C#Cc2ccc(CN3CC(C)(OC)C3)cc2)cc1` [Compound 558, (2S)-N-hydroxy-2-[{[4-({4-[(3-methoxy-3-methylazetidin-1-yl)methyl]phenyl}ethynyl)phenyl]carbonyl}(methyl)amino]-N′,2-dimethylpropanediamide], for which, on E. coli LpxC enzyme, the IC50 stood at 235 nM. Besides, the MIC in the assay on E. coli strain ATCC25922 was found to be 0.5 µg/mL (≈ 1.02 µM); in assay [2], 2 µg/mL (≈ 4.06 µM); in assay [3] it was 1 µg/mL (≈ 2.03 µM).

At E. coli LpxC enzyme, `CNC(=O)[C@@](C)(C(=O)NO)N(C)C(=O)c1ccc(C#Cc2ccc(CN3CCOCC3)cc2)cc1` [Compound 561, (2S)-N-hydroxy-N′,2-dimethyl-2-{methyl[(4-{[4-(morpholin-4-ylmethyl)phenyl]ethynyl}phenyl)carbonyl]amino}propanediamide] yielded an IC50 of 30 nM. Besides, the MIC came to 0.125 µg/mL (≈ 0.261 µM) in the assay on E. coli strain ATCC25922, 0.5 µg/mL (≈ 1.04 µM) in assay [2] and 0.5 µg/mL (≈ 1.04 µM) in assay [3].

For `CNC(=O)[C@@](C)(C(=O)NO)N(C)C(=O)c1ccc(C#Cc2ccc(CN3CC(OC)C3)cc2)cc1` [Compound 567, (2S)-N-hydroxy-2-[{[4-({4-[(3-methoxyazetidin-1-yl)methyl]phenyl}ethynyl)phenyl]carbonyl}(methyl)amino]-N′,2-dimethylpropanediamide], the IC50 against E. coli LpxC enzyme turned out to be 177 nM. In addition, the MIC worked out at 0.5 µg/mL (≈ 1.04 µM) in the assay on E. coli strain ATCC25922, 2 µg/mL (≈ 4.18 µM) in assay [2] and 1 µg/mL (≈ 2.09 µM) in assay [3].

As to `CNC(=O)[C@@](C)(C(=O)NO)N(C)C(=O)c1ccc(C#Cc2coc(CNC3CC3)c2)cc1` [Compound 585, (2S)-2-[{[4-({5-[(cyclopropylamino)methyl]furan-3-yl}ethynyl)phenyl]carbonyl}(methyl)amino]-N-hydroxy-N′,2-dimethylpropanediamide], the values for the IC50 (in assay [1] (setting [4]); in assay [1] (setting [6]); on E. coli LpxC enzyme) were 3.4 nM, less than 10 nM and 88 nM, respectively. Besides, the MIC stood at 0.5 µg/mL (≈ 1.14 µM) in the assay with E. coli strain ATCC25922, 1 µg/mL (≈ 2.28 µM) in assay [2] and 0.5 µg/mL (≈ 1.14 µM) in assay [3].
